In experiment [1] the test system is NCI-H1568 cells (high MCL1). The experiment can be described thus: Cell proliferation and viability, CellTiter-Glo, 72 hours. Particulars: for GI50: geometric mean. The experiment is classed as cell-based. As to the method:
Cell lines were maintained in RPMI-1640 (ATCC 30-2001) supplemented with 10% fetal bovine serum (FBS). The Panc lines were supplemented in addition with insulin and FBS up to 15% total.
Compounds for assay were prepared as stocks in 90% dimethyl sulfoxide (DMSO), assessed for purity by LC/MS, and serially diluted in DMSO using a low-volume liquid handler (VIAFLO ASSIST and VIAFLO II electronic 16-channel pipette, 0.5-12.5 μL) in an 11-point half-log serial dilution to create a master dose response (MDR) source used for all tests.
Transfer of compounds from the MDR source plate to cell assay-ready plates were accomplished directly by low-energy acoustic transfer (ATS100, EDC Biosystems). After transfer of compounds to the assay plate, the dose-response range experienced by cells was typically 10 μM-100 pM (5 logs), and final DMSO concentration in the assay was 0.1%, uniformly. Each assay plate was self-anchored containing vehicle/DMSO negative controls, medium-only/positive controls, and cidal control dose-responses of bortezomib and staurosporine. Assay-ready plates were heat-sealed and stored at −20° C. until used, no longer than one month.
A DMSO-matched time zero (T0) plate was read and then all other plates were incubated at 37° C. with 5% CO2 and 95% relative humidity until the end of assay. Cell proliferation and viability assays were performed 72 hours post-treatment depending on cell growth where at least one doubling would have occurred.
Assessment of viability and proliferation was by measurement of cell ATP content using CellTiter-Glo® Luminescent Cell Viability Assay reagent (Promega) according to the manufacturer's instructions (CellTiter-Glo® Luminescent Cell Viability Assay Technical Bulletin Instructions for Use of Product(s) G7570, G7571, G7572, G7573 Literature #TB288, Revised March 2015), using a microtiter plate reader (Envision, PE).
Cell proliferation was evaluated using the time zero (T0) signal as the positive control and the within-plate vehicle wells (DMSO) as the negative control. Data was converted to percent inhibition and falls into the range from −100% to 100% of growth where −100% equals a cidal response and 100% equals uninhibited or maximal growth. Cell growth at or near 0% is considered a static response.

Experiment [2] deals with T1, SF3b complexes (Homo sapiens, UniProt O75533+Q7RTV0).
T1 construct: endogenous in cells; host or cells: Nuclear extracts; A HeLa S3 extract preparation is described for the in vitro splicing assay
The experiment can be described thus: Scintillation proximity assay (SPA) with [3H]-labelled pladienolide probe. It counts as binding. Particulars: SF3B1 (WT); geometric mean; read-out: SPA-ATS GMean IC50 (nM) SF3B1 (WT). As to the method: Scintillation Proximity Assay (SPA) with [^3-H]-Labelled Pladienolide Probe
(§1) Batch immobilization of anti-SF3B1 antibody (MBL) to anti-mouse PVT SPA scintillation beads (PerkinElmer) was prepared as follows: for every 2.5 mg of nuclear extracts, 5 μg anti-SF3B1 antibody and 1.5 mg of beads were mixed in 150 μl PBS. The antibody-bead mixture was incubated for 30 min at RT and centrifuged at 18,000 g for 5 min. 150 μl PBS was used to resuspend every 1.5 mg antibody-bead mixture. The beads were suspended and added to the prepared nuclear extracts. The slurry was incubated for 2 h at 4° C. with gentle mixing. The beads were then collected by centrifuging at 18,000 g for 5 min, and washed twice with PBS+0.1% Triton X-100. After a final centrifugation step, every 1.5 mg of beads was suspended with 150 μl of PBS. The SF3b complexes were tested for [^3H]-labelled pladienolide probe binding ([^3H]—PB), synthesized as previously described (Kotake et al., 2007). 100 μl binding reactions were prepared with 50 μl bead slurry and by adding varying concentrations of PB or PB—OH, and after 30 min pre-incubation, 2.5 nM [^3H]—PB was added. The mixture was incubated for 30 min, and luminescence signals were read using a MicroBeta2 Plate Counter (PerkinElmer). Prism 6 (Graphpad) was used for non-linear regression curve fitting of the data. • a. • b. HeLa nuclear extract preparation (for in vitro splicing modulation assay below) • c. HeLa S3 cell pellets were resuspended in hypotonic buffer (10 mM HEPES pH 7.9, 1.5 mM MgCl2, 10 mM KCl, 0.2 mM PMSF, and 0.5 mM DTT) and the suspension was brought up to a total of 5 packed cell volume (PCV). After centrifugation, the supernatant was discarded, and the cells were brought up to 3 PCV with hypotonic buffer and incubated on ice for 10 minutes. Cells were lysed using a dounce homogenizer and then centrifuged. The supernatant was discarded, and the pellet was resuspended with ½ packed nuclear volume (PNV) of low salt buffer (20 mM HEPES pH 7.9, 1.5 mM MgCl2, 20 mM KCl, 0.2 mM EDTA, 25% glycerol, 0.2 mM PMSF, 0.5 mM DTT), followed by ½ PNV of high salt buffer (same as low salt buffer except 1.4 M KCl was used). The nuclei were gently mixed for 30 minutes before centrifuging. The supernatant (nuclear extract) was then dialyzed into storage buffer (20 mM HEPES pH 7.9, 100 mM KCl, 0.2 mM EDTA, 20% glycerol, 0.2 mM PMSF, 0.5 mM DTT). Protein concentration was determined using NanoDrop 8000 UV-Vis spectrophotometer (ThermoFisher Scientific). • d. In vitro splicing assay (IVS)
Background: SPA uses beads or plates that emit light when radiolabelled molecules are held near them.

For experiment [3], the system named is Ad2 variant pre-mRNAs spliced in HeLa S3 nuclear extracts. The experiment can be described thus: In vitro splicing assay (IVS), RT-qPCR of spliced product. It counts as biochemical. Particulars: for IC50: geometric mean; for Ratio Ad2.1/2.2: ratio of IVS IC50 Ad2.1 to Ad2.2. As to the method:
as §1
All Ad2-derived (Pellizzoni et al., 1998) sequences were cloned into pcDNA3.1(+) vector (Promega) using 5′ EcoRI and 3′ XbaI restriction sites. The plasmids were linearized using XbaI and used as DNA templates in the in vitro transcription reactions. The FtzΔi intron-less plasmid (Luo and Reed, 1999) was linearized using EcoRI. All RNAs were in vitro transcribed and then purified using MEGAScript T7 (Invitrogen) and MegaClear (Invitrogen) kits, respectively. For splicing reactions using Ad2 variant pre-mRNAs, […] reactions were prepared using 8 μg nuclear extracts prepared from HeLa S3, 2 ng pre-mRNA, 0.2 ng FTZΔi, and varying concentrations of exemplary payloads or DMSO. After a 15 minute pre-incubation at 30° C., 1 μL splicing activation buffer (0.5 mM ATP, 20 mM creatine phosphate, 1.6 mM MgCl2) was added, and the reactions were incubated for 90 minutes at 30° C. The reactions were then quenched with 13 μL it DMSO, and 25 nL was used for RT-qPCR. RT-qPCR reactions were prepared using TaqMan RNA-to-CT 1-step kit (Life Technologies), RNA from splicing reactions, Ad2 (forward: […]; reverse: […]; probe: […]) and Ftz (forward: […]; reverse: […]; probe: […]) mRNA primer-probe sets. Prism 6 (Graphpad) was used for non-linear regression curve fitting of the formed spliced product and normalized to the control (DMSO) sample.
In general terms: Real-time PCR tracks product formation cycle by cycle.

[4] abbreviates: 72 h, NCIH1568.1, -100% = cidal, 0% = static, 100% = uninhibited growth.
Where [5] appears, read: Ad2.1 pre-mRNA substrate, read-out: qPCR-IVS-ATS GMean IC50 (nM) Ad2.1.
Setting [6] is: Ad2.2 pre-mRNA substrate, read-out: qPCR-IVS-ATS GMean IC50 (nM) Ad2.2.
Setting [7] is: NCI-H1568, 72 h, read-out: CTGlo-ATS GMean GI50 (nM) 72 h NCIH1568.1, 72 h, NCIH1568.1.
Setting [8] is: NCI-H1568, read-out: CTGlo-ATS GMean GI50 (nM) 72 h NCIH1568.1, NCIH1568.1 cells, 72 h.
Where [9] appears, read: NCIH1568.1 cells, 72 h, −100% cidal, 0% static, 100% maximal growth.

Molecules are shown by their SMILES. Read-outs that look alike come from different tables or passages of the source.

Broadly, the GI50 is the concentration that inhibits growth by half. A word on the IC50: it is the concentration that inhibits the measured activity by half.

For `C/C(=C\c1cc(F)cc(N2CCN(C(=O)Cn3cccn3)CC2)c1)[C@H]1OC(=O)C[C@H](O)CC[C@H](C)[C@@H](OC(=O)N2CCOCC2)/C=C/[C@@H]1C` [Compound 223, [(2S,3S,4E,6R,7S,10R)-2-[(E)-1-[3-fluoro-5-[4-(2-pyrazol-1-ylacetyl)piperazin-1-yl]phenyl]prop-1-en-2-yl]-10-hydroxy-3,7-dimethyl-12-oxo-1-oxacyclododec-4-en-6-yl] morpholine-4-carboxylate], in experiment [1] (setting [4]), the “CTGlo-ATS Mean MinResponse % 72 h NCIH1568.1” value is given as −62.835%. Moreover, the GI50 in experiment [1] (NCI-H1568, read-out: CTGlo-ATS GMean GI50 (nM) 72 h NCIH1568.1, 72 h, NCIH1568.1) is 33.1 nM. Further, the results for the IC50 in experiment [2], in experiment [3] (setting [5]) and in experiment [3] (setting [6]) were 15.9 nM, 93.9 nM and 6.96 nM, respectively. For the same molecule, the “Ratio Ad2.1/2.2” value in experiment [3] turned out to be 13.488.
Regarding `C/C(=C\c1cc(F)cc(N2CCN(C(=O)Cn3cccn3)CC2)c1)[C@H]1OC(=O)C[C@H](O)CC[C@H](C)[C@@H](OC(=O)NCc2ccncc2)/C=C/[C@@H]1C` [Compound 221, [(2S,3S,4E,6R,7S,10R)-2-[(E)-1-[3-fluoro-5-[4-(2-pyrazol-1-ylacetyl)piperazin-1-yl]phenyl]prop-1-en-2-yl]-10-hydroxy-3,7-dimethyl-12-oxo-1-oxacyclododec-4-en-6-yl] N-(pyridin-4-ylmethyl)carbamate], the “CTGlo-ATS Mean MinResponse % 72 h NCIH1568.1” value in experiment [1] (setting [4]) is −66.213%. Also, the GI50 in experiment [1] (setting [7]) turned out to be 11.4 nM. In addition, the values for the 50% inhibitory concentration (IC50) in experiment [2], in experiment [3] (setting [5]) and in experiment [3] (setting [6]) were 9.33 nM, 9.6 nM and 4.86 nM, respectively. In addition, the “Ratio Ad2.1/2.2” value in experiment [3] stood at 1.973.
Consider `C/C(=C\c1cc(F)c2nnn([C@@H](C)CO)c2c1)[C@H]1OC(=O)C[C@H](O)CC[C@H](C)[C@@H](OC(=O)N2CCN(C)CC2)/C=C/[C@@H]1C` [Compound 149], for which the GI50 in experiment [1] (setting [8]) came out at 1.66 nM. Also, in experiment [1] (setting [9]), the “CTGlo-ATS Mean MinResponse % 72 h NCIH1568.1” value is reported as −73.106%. Besides, the concentration for half-maximal inhibition (IC50) came out at 1.86 nM in experiment [2], 9.13 nM in experiment [3] (setting [5]) and 8.71 nM in experiment [3] (setting [6]).
With `C/C(=C\c1cc(F)cc(N2CCN(CCCO)CC2)c1)[C@H]1OC(=O)C[C@H](O)CC[C@H](C)[C@@H](OC(=O)N2CCN(C)CC2)/C=C/[C@@H]1C` [Compound 136], in experiment [1] (NCI-H1568, 72 h, read-out: CTGlo-ATS GMean GI50 (nM) 72 h NCIH1568.1, NCIH1568.1 cells, 72 h), the concentration for 50% growth inhibition (GI50) amounted to 7.17 nM. For the same molecule, the “CTGlo-ATS Mean MinResponse % 72 h NCIH1568.1” value in experiment [1] (setting [9]) was −90.722%. The IC50 in experiment [2] was found to be 8.11 nM; in experiment [3] (setting [5]), 8.64 nM; in experiment [3] (setting [6]) it was 14.5 nM.
`C/C(=C\c1cc(F)cc(N2CCN(C(=O)Cn3cccn3)CC2)c1)[C@H]1OC(=O)C[C@H](O)CC[C@H](C)[C@@H](OC(=O)N2CC[C@H](N(C)C)C2)/C=C/[C@@H]1C` [Compound 228, [(2S,3S,4E,6R,7S,10R)-2-[(E)-1-[3-fluoro-5-[4-(2-pyrazol-1-ylacetyl)piperazin-1-yl]phenyl]prop-1-en-2-yl]-10-hydroxy-3,7-dimethyl-12-oxo-1-oxacyclododec-4-en-6-yl] (3S)-3-(dimethylamino)pyrrolidine-1-carboxylate]: the “CTGlo-ATS Mean MinResponse % 72 h NCIH1568.1” value in experiment [1] (setting [4]) is listed as −77.633%. In addition, the concentration for 50% growth inhibition (GI50) in experiment [1] (setting [7]) is 3.29 nM. Besides, the IC50 in experiment [2] was 3.96 nM.
On to `C/C(=C\c1cc(F)c2nnn(CC3CCOCC3)c2c1)[C@H]1OC(=O)C[C@H](O)CC[C@H](C)[C@@H](OC(=O)N2CCN(C)CC2)/C=C/[C@@H]1C` [Compound 148], for which the GI50 in experiment [1] (setting [8]) turned out to be 1.42 nM. In experiment [1] (setting [9]), the “CTGlo-ATS Mean MinResponse % 72 h NCIH1568.1” value is listed as −85.010%. Besides, in experiment [2], the half-inhibitory concentration (IC50) is 2.24 nM.
On to `C/C(=C\c1cc(F)cc(N2CCN(C(=O)Cn3cccn3)CC2)c1)[C@H]1OC(=O)C[C@H](O)CC[C@H](C)[C@@H](OC(=O)N2CCC(N(C)C)C2)/C=C/[C@@H]1C` (stereo in doubt) [Compound 227, [(2S,3S,4E,6R,7S,10R)-2-[(E)-1-[3-fluoro-5-[4-(2-pyrazol-1-ylacetyl)piperazin-1-yl]phenyl]prop-1-en-2-yl]-10-hydroxy-3,7-dimethyl-12-oxo-1-oxacyclododec-4-en-6-yl] (3S)-3-(dimethylamino)pyrrolidine-1-carboxylate], for which, in experiment [1] (setting [4]), the “CTGlo-ATS Mean MinResponse % 72 h NCIH1568.1” value is on record as −81.522%. Also, the GI50 in experiment [1] (setting [7]) was 2.37 nM. For the same molecule, the concentration for half-maximal inhibition (IC50) in experiment [2] is 3.25 nM.

The values are drawn from patent US11679107B2 (Eisai R&D Management Co., Ltd., priority 2018, dated 2023).
